Converted amounts (≈) assume the structure as drawn.
Legend:
[1] = test system: Fibronectin; assay: Fibronectin secretion experiment (Western blot); type: cell-based; settings: bladder, cervix, prostate, lung, breast, leukemia, colon, liver, bone, brain, skin, ovary, pancreas, mouth, kidney cells; 24 hours
Description: Western blot is applied in this invention as a method to detect the specific proteins in treated and untreated cells with compounds in this invention, wherein the cells are bladder, cervix, prostate, lung, breast, leukemia, colon, liver, bone, brain, Skin, ovary, Pancreas(Capan), Mouth(KB), Kidney.
Cells: targeted cells were grown in RPMI 1640 medium. 1.5 million cells were seeded in a T25 flask and grown for 24 hours before drug-treatment.
Drug-treatment: Cells cultures were replaced with fresh RPMI medium containing either 2.5 ul of DMSO (as control) [D]; or 10, 20, 30, 40, 80 ug/ml of tested compounds.
After 24 hours, aliquot of culture medium was taken out for Fibronectin determination (Western blot method).
Cell viability at 24 hours was determined by MTT assay. Cultures were replaced with RPMI medium (5 ml) with MTT and incubated for an hour. The formation of formazan was dissolved in 10 ml of DMSO and OD at 570 nm was measured (MTT units). Western Blot: Spent culture medium was mixed with SDS sample buffer, boiled for 3 minutes before loading to SDS gel. Samples were applied to a 6-10% SDS gel and electrophoresis was conducted with 100 volts for 2 hours. Protein was transferred to a nitrocellulose membrane electrophoretically. The nitrocellulose blot was incubated with the first antibody and second antibody (AP conjugated, Promega S3721). The immuno-bands were developed with BCIP/NBT color development system.
Determination of Western blot band intensity: The band-images of Western blot were captured with a digital camera and the intensity of bands was determined using “Image J” software.

[2] = test system: T98G; assay: MTT assay, brain (T98G); type: cell-based, human
Description: (§1) Cells. HTB-9 (bladder), HeLa-S3 (cervix), DU145 (prostate), H460 (lung), MCF-7 (breast), K562 (leukemia), HCT116 (colon), HepG2 (liver), U2OS (bone), T98G (brain), SK-MEL-5 (Skin) and OVCAR 3, ES2 (ovary), Pancreas (Capan), Mouth (KB), Kidney(A498).
(§2) MTT Assay. The procedure for MTT assay followed the method described by Carmichael et al. (1987) with modifications. The cells were seeded into a 96-well plate at for 24 hours before drug-treatment. The cells were then exposed to the drugs for 48, 72, or 96 hours. After the drug-treatment, MTT (0.5 mg/mL) was added to cultures and incubated for an hour. The formazan (product of the reduction of tetrazolium by viable cells) formed and was dissolved with DMSO and the O.D. at 490 nm, and was measured by an ELISA reader. The MTT level of the cells before drug-treatment was also measured (T0). The % cell-growth (%G) is calculated as: %G = (TD-T0 / TC-T0) x 100(1), where TC or TD represents O.D. readings of control or drug-treated cells. When T0 > TD, then the cytotoxicity (LC) expressed as % of the control is calculated as: %LC = (TD-T0 / T0) × 100(2).

[3] = test system: OVCAR3; assay: MTT assay, ovary (OVCAR3); type: cell-based, human; settings: for IC50 of ovary (OVCAR3): MTT
Description: as §1, §2

[4] = test system: cancer cells; assay: Inhibition of cancer growth, cancer invasion, cell invasion or cancer cell invasion; type: cell-based
From the text: The program is based on our purification methods and biological assays including the MTT assay. See International Application No. PCT/US05/31900, filed Sep. 7, 2005, U.S. Serial No. 11/289,142, filed Nov. 28, 2005, and U.S. Serial No. 11/131551, filed May 17, 2005, and PCT/US2008/002086, 1188-ALA-PCT, filed Feb. 15, 2008, 12/344,682, 1020-B1-US, filed Dec. 29, 2008. The details of Analysis of gene expression of ES2 cells after Y-treatment by Microarray, Data Analysis Methods and Western blot in PCT/US2008/002086, 1188-ALA-PCT, filed Feb. 15, 2008, and the cell invasion experiments methods in International Application PCT/US2010/0042240, filed Jul. 16, 2010.

[5] = test system: HTB-9; assay: MTT assay, bladder (HTB-9); type: cell-based, human
Description: as §1, §2

[6] = test system: Erythrocytes (RBC); assay: The haemolytic assay
Description: Erythrocytes (RBC) were isolated from human blood (EDTA whole blood, collected randomly). 50 ul of the 10% RBC suspension (in PBS) was added to 2 ml of sample solutions (concentration range from 0.1 ug/ml to 400 ug/ml) in PBS. The mixture was vortexed briefly and sat for 60 min at room temperature. The mixture was spun at 3 K for 10 min and the relative amounts of lysed hemoglobin in the supernatant were measured at 540 nm.

| Compound | inhibition of fibronectin secretion [1] | IC50 of brain (T98G) [2] | IC50, ovarian cancer (OCAR3) cells' growth ([3]; FIG. 37) | IC50 of ovary (OVCAR3) [3] | anti-cancer activity [4] | IC50 of bladder (HTB-9) [5] | hemolytic activity ([6]; in words, no concentration given) | hemolytic activity ([6]; up to 20 ug/ml) |
| --- | --- | --- | --- | --- | --- | --- | --- | --- |
| CC=C(C)C(=O)OCC1(C)C(O)CCC2(C)C1CCC1(C)C2CC=C2C3CC(C)(C)C(OC(=O)C(C)=CC)C(O)C3(CO)C(O)CC21C (centres unmarked) [Tig-S] | 20-40% | 9 µg/mL | 2.5 µg/mL (≈ 3.73 µM) | 6.5 µg/mL | have anti-cancer activities | 3.5 µg/mL | – | – |
| CC=C(C)C(=O)OCC1(C)C(O)CCC2(C)C1CCC1(C)C2CC=C2C3CC(C)(C)C(O)C(OC(=O)C(C)=CC)C3(COC(=O)C(C)=CC)C(O)CC21C (centres unmarked) [Tig-T] | 20-40% | 26 µg/mL | – | 25 µg/mL | have anti-cancer activities | – | – | – |
| 24,28-O-Tigloyl-3β,16α, 21β, 22a, 24β, 28-hexahydroxyolean-12-ene [Tig-R] | 20-40% | 8 µg/mL | – | 5.8 µg/mL | have anti-cancer activities | 2.5 µg/mL | no hemolytic activity | do not have hemolytic activity |
| CC=C(C)C(=O)OCC1(C)C(O)CCC2(C)C1CCC1(C)C2CC=C2C3CC(C)(C)C(O)C(O)C3(CO)C(O)CC21C (centres unmarked) [Tig-N] | 20-40% | 19 µg/mL | – | 18 µg/mL | have anti-cancer activities | 7.5 µg/mL | – | do not have hemolytic activity |

From patent publication US20230340012A1, “NATURAL AND SYNTHETIC COMPOUNDS FOR TREATING CANCER AND OTHER DISEASES” (PACIFIC ARROW LIMITED, priority 2009, published 2023)
